US20250296961A1, “ANTIMICROBIAL PEPTIDES FOR REMINERALIZATION OF TEETH AND PREVENTION OF DENTAL CARIES” (The University of Hong Kong, priority 2021, published 2025)
Read-outs that look alike come from different tables or passages of the source.

Key:
S. sanguinis = assay: Anti-planktonic bacterial ability, MBC (Example 2); format: cell-based, S. sanguinis (ATCC 10556)
Protocol: (§1) S. mutans (ATCC 35668, ATCC, Manassas, USA), S. gordonii (ATCC 35105, ATCC, Manassas, USA), and S. sanguinis (ATCC 10556, ATCC, Manassas, USA) strains were cultured in brain-heart infusion broth (BHI, Difco Laboratories, Detroit, USA) at 37° C. under anaerobic conditions (85% N2, 10% H2, and 5% CO2). Bacteria were harvested by centrifugation (5000 rpm, 10 min), washed once with sodium phosphate-buffered saline (PBS, 10 mM, pH=7.2), and resuspended in BHI at a concentration of 1×10^6 CFU mL^−1.
(§2) Each well was seeded with 10 μL S. mutans suspension, S. gordonii suspension, and S. sanguinis suspension, respectively. […] The bacterial growth was assessed by measuring the absorbance at 595 nm using a microplate reader after a 24-hour incubation. Subsequently, 10 μL of bacterial suspension from each well were plated on horse blood agar plates and incubated at 37° C. for 48 h. The antibacterial activities of AMPs were evaluated.

[1] = Adsorption capacity assay: peptides with HA particles (Micro BCA); format: binding
Protocol: The adsorption of P-113, P-113-DPS, P-113-DA, and P-113-SK to HA particles (Sigma Chemical Co., St Louis, USA) was measured using the Micro BCA method with Sp-H5 as the control group. Solutions of P-113, P-113-DPS, P-113-DA, P-113-SK and Sp-H5 in 10 mM HEPES buffer (pH 7) were diluted to 10 nmol/mL concentrations, and 200 μL was placed into each tube (P-113, N=10; P-113-DPS, N=10; P-113-DA, N=10; P-113-SK, N=10; and Sp-H5, N=10). Peptide solutions were mixed with (n=5) or without (n=5) HA particles (20 mg/tube) in each group. Tubes were placed onto a rotator overnight at 37° C. for complete reaction. Tubes containing the peptide solution and HA were centrifuged (13000 rpm, 1 min) and the supernatant collected. Bovine serum albumin (BSA) standard solutions (working range=5-250 μg/mL) and working reagent were prepared using the Pierce BCA Protein Assay Kit (Rockford, IL, USA). Working reagents (100 μL/well) were added to a 96-well plate, followed by standard and peptide solutions (100 μL/well). The Plate was incubated in the dark for 30 min and the absorbance (562 nm) measured using a plate reader. The concentration (C) of the BSA standard solution was linear with the absorbance (A) at 562 nm. The function of C=a*A+b was determined (a and b as constants). The final concentration (the peptide solution mixed with HA) and the initial concentration (the peptide solution without HA) were computed using the function and the generated absorbance data of the peptide solution mixed with and without HA.

S. mutans biofilms = format: cell-based
Protocol: Streptococcus mutans (ATCC 35668, ATCC, Manassas, USA) were cultured in Horse Blood Medium under anaerobic (85% N2, 10% H2, and 5% CO2) conditions at 37° C. Cells were harvested by centrifugation (5000 rpm, 10 min), washed once with 10 mM sodium phosphate-buffered saline (PBS, pH 7.2), and resuspended in brain-heart infusion broth (BHI, Difco Laboratories, Detroit, USA) at a concentration of 10^6 CFU/mL.
S. mutans biofilms were cultured on enamel working surfaces in a 96-well plate. Tooth slices (N=32) were autoclave-sterilized prior to anti-biofilm activity testing. 200 μL S. mutans in BHI (10^6 CFU/mL) was added to each well. After a 24-h incubation at 37° C., each tooth slice was washed once with PBS. […] (in 10 mM HEPES). After incubation, tooth slices were washed once with PBS. One tooth slice at random in each group was stained with the LIVE/DEAD BacLight Bacterial Viability Kit (L7012, Thermo Fisher Scientific, Waltham, USA) and incubated in the dark for 30 min. Fluorescence images were obtained using confocal laser scanning microscopy (CLSM, Fluoview 1000, Olympus, USA). A separate tooth slice was used for the counting of colony-forming units (CFU). Tooth slices were placed in 1 mL BHI solution, and adherent biofilms were removed from the enamel surfaces by sonication for 30 sec. Ten-fold serial dilutions of the suspensions were plated in duplicate on horse blood agar. CFU's were counted after 48-h incubation. Three independent biofilm experiments were performed.

[2] = Remineralization assay of peptide-coated enamel (Example 1); set-up: species or system human; conditions: 8 μmol/mL coating, remineralization solution 24 h, FE-SEM
Protocol: 3×3×1.5 mm^3 (number: 197) tooth slices were prepared using a water-cooled diamond saw (IsoMet low-speed saw, Buehler, Lake Bluff, IL, USA). One working surface of complete enamel tissue from each tooth slice was generated using the MicroCT Skyscan 1172 (Bruker MicroCT, Kontich, Belgium). The enamel working side of the tooth slice was polished and other sides marked with acid-proof nail polish. All tooth slices were cleaned and stored in deionized water at 4° C.
The enamel working surface of tooth slices (N=30) was acid-etched in 37% phosphoric acid for 1 min and rinsed with deionized water for 1 min. The slices were immersed in 8 μmol/mL P-113, P-113-DPS, P-113-DA, P-113-SK, Sp-H5 (n=5 for each) solutions (in 10 mM HEPES) or HEPES (control) overnight. All tooth slices were incubated in 7 mL remineralization solution (2.58 mM CaCl2)·2H2O, 1.55 mM KH2PO4, 10 mg/L NaF, 180 mM NaCl, 50 mM Tris-HCl, pH 7.6) for 24 h. The enamel surface and cross-section morphology were analyzed by FE-SEM (Hitachi, S4800). Ca/P concentrations in the solutions before and after immersion were calculated by ICP-OES. The mean values for Ca/P gain were analyzed using ANOVA at the 1‰ significance level.

S. gordonii = assay: Anti-planktonic bacterial ability, MBC (Example 2); format: cell-based, S. gordonii (ATCC 35105)
Protocol: as §1, §2

## AKRHHGYKRKFH [Peptide P-113, non-specific AMP, portion of human histatin 5]
S. sanguinis
  MBC, S. sanguinis: >128 μM mL^−1
[1]; initial vs final concentration with HA particles
  Concentration change (95% CI): 0.29 (−0.01-0.61)
[1]; peptide solution mixed with HA particles (20 mg/tube), overnight 37° C.
  Final concentration (Mean ± SD): 9.86 ± 0.23 nM mL^−1
S. mutans biofilms; 128 μmol/mL, 24 h exposure
  S. mutans killed (biofilm): 79%
S. mutans biofilms; 160 μmol/mL
  S. mutans killed (biofilm): 87%
S. mutans biofilms; 24 h, concentration not given
  CLSM live/dead state of S. mutans biofilm: the majority of S. mutans in BHI and P-113 were alive
[2]
  Thickness of the regenerated crystal layer on the enamel surface: 6 μm
S. gordonii
  MBC, S. gordonii: >128 μM mL^−1
